From BindingDB's records for doi:10.1002/cbic.200500089 (Progen Industries, 2005)

Assays:
[1] = molecular target: Fibroblast growth factor 1 (Homo sapiens, UniProt P05230); experiment: Binding Assay; conditions: pH 7.4
Method: (§1) Human FGF-1 and FGF-2 were purchased from R&D Systems, Inc. and supplied as protein (ug) dissolved in bovine serum albumin (BSA, 50ug). Surface plasmon resonance (SPR) measurements were performed on a BIA-core 3000 from BIAcore, Uppsala, Sweden and operated by the BIAcore control software.

[2] = molecular target: Fibroblast growth factor 2 (Homo sapiens, UniProt P09038); experiment: Binding Assay; conditions: pH 7.4
Method: as §1

Sequence of Fibroblast growth factor 1 (P05230 whole entry): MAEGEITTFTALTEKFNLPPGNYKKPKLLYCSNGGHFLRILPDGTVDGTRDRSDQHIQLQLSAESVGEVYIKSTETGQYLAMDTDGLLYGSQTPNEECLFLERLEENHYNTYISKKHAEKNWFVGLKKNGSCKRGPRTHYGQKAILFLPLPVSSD
Sequence of Fibroblast growth factor 2 (P09038 143-288 limits assumed): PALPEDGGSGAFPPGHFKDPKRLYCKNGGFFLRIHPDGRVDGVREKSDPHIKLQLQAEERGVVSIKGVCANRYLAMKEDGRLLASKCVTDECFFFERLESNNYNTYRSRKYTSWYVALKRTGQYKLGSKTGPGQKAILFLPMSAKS

O=S(=O)(O)O[C@H]1[C@H](OS(=O)(=O)O)[C@@H](N(CCCCCCCCCCN([C@H]2C=C[C@@H](OS(=O)(=O)O)[C@@H](OS(=O)(=O)O)[C@@H]2OS(=O)(=O)O)[C@H]2C=C[C@@H](OS(=O)(=O)O)[C@@H](OS(=O)(=O)O)[C@@H]2OS(=O)(=O)O)[C@H]2C=C[C@@H](OS(=O)(=O)O)[C@@H](OS(=O)(=O)O)[C@@H]2OS(=O)(=O)O)C=C[C@H]1OS(=O)(=O)O [Linked sulfated tetracyclitol, 10]
Kd [1]: 0.115 µM
Kd [2]: 0.448 µM

O=S(=O)(O)O[C@H]1[C@H](OS(=O)(=O)O)[C@@H](N(CCCCCN([C@H]2C=C[C@@H](OS(=O)(=O)O)[C@@H](OS(=O)(=O)O)[C@@H]2OS(=O)(=O)O)[C@H]2C=C[C@@H](OS(=O)(=O)O)[C@@H](OS(=O)(=O)O)[C@@H]2OS(=O)(=O)O)[C@H]2C=C[C@@H](OS(=O)(=O)O)[C@@H](OS(=O)(=O)O)[C@@H]2OS(=O)(=O)O)C=C[C@H]1OS(=O)(=O)O [Linked sulfated tetracyclitol, 5]
Kd [1]: 0.0298 µM
Kd [2]: 0.148 µM

O=S(=O)(O)O[C@H]1[C@H](OS(=O)(=O)O)[C@@H](N(CCCCCCCCCN([C@H]2C=C[C@@H](OS(=O)(=O)O)[C@@H](OS(=O)(=O)O)[C@@H]2OS(=O)(=O)O)[C@H]2C=C[C@@H](OS(=O)(=O)O)[C@@H](OS(=O)(=O)O)[C@@H]2OS(=O)(=O)O)[C@H]2C=C[C@@H](OS(=O)(=O)O)[C@@H](OS(=O)(=O)O)[C@@H]2OS(=O)(=O)O)C=C[C@H]1OS(=O)(=O)O [Linked sulfated tetracyclitol, 9]
Kd [1]: 0.119 µM
Kd [2]: 0.194 µM

O=S(=O)(O)O[C@H]1[C@H](OS(=O)(=O)O)[C@@H](N(CCCCCCCN([C@H]2C=C[C@@H](OS(=O)(=O)O)[C@@H](OS(=O)(=O)O)[C@@H]2OS(=O)(=O)O)[C@H]2C=C[C@@H](OS(=O)(=O)O)[C@@H](OS(=O)(=O)O)[C@@H]2OS(=O)(=O)O)[C@H]2C=C[C@@H](OS(=O)(=O)O)[C@@H](OS(=O)(=O)O)[C@@H]2OS(=O)(=O)O)C=C[C@H]1OS(=O)(=O)O [Linked sulfated tetracyclitol, 7]
Kd [1]: 0.008 µM
Kd [2]: 0.09 µM

O=S(=O)(O)O[C@H]1[C@H](OS(=O)(=O)O)[C@@H](N(CCCCN([C@H]2C=C[C@@H](OS(=O)(=O)O)[C@@H](OS(=O)(=O)O)[C@@H]2OS(=O)(=O)O)[C@H]2C=C[C@@H](OS(=O)(=O)O)[C@@H](OS(=O)(=O)O)[C@@H]2OS(=O)(=O)O)[C@H]2C=C[C@@H](OS(=O)(=O)O)[C@@H](OS(=O)(=O)O)[C@@H]2OS(=O)(=O)O)C=C[C@H]1OS(=O)(=O)O [Linked sulfated tetracyclitol, 4]
Kd [1]: 0.0254 µM
Kd [2]: 0.161 µM

O=S(=O)(O)O[C@H]1[C@H](OS(=O)(=O)O)[C@@H](N(CCCN([C@H]2C=C[C@@H](OS(=O)(=O)O)[C@@H](OS(=O)(=O)O)[C@@H]2OS(=O)(=O)O)[C@H]2C=C[C@@H](OS(=O)(=O)O)[C@@H](OS(=O)(=O)O)[C@@H]2OS(=O)(=O)O)[C@H]2C=C[C@@H](OS(=O)(=O)O)[C@@H](OS(=O)(=O)O)[C@@H]2OS(=O)(=O)O)C=C[C@H]1OS(=O)(=O)O [Linked sulfated tetracyclitol, 3]
Kd [1]: 0.0072 µM
Kd [2]: 0.248 µM

O=S(=O)(O)O[C@H]1[C@H](OS(=O)(=O)O)[C@@H](N(CCCCCCCCN([C@H]2C=C[C@@H](OS(=O)(=O)O)[C@@H](OS(=O)(=O)O)[C@@H]2OS(=O)(=O)O)[C@H]2C=C[C@@H](OS(=O)(=O)O)[C@@H](OS(=O)(=O)O)[C@@H]2OS(=O)(=O)O)[C@H]2C=C[C@@H](OS(=O)(=O)O)[C@@H](OS(=O)(=O)O)[C@@H]2OS(=O)(=O)O)C=C[C@H]1OS(=O)(=O)O [Linked sulfated tetracyclitol, 8]
Kd [1]: 0.0404 µM
Kd [2]: 0.108 µM

O=S(=O)(O)O[C@H]1[C@H](OS(=O)(=O)O)[C@@H](N(CCN([C@H]2C=C[C@@H](OS(=O)(=O)O)[C@@H](OS(=O)(=O)O)[C@@H]2OS(=O)(=O)O)[C@H]2C=C[C@@H](OS(=O)(=O)O)[C@@H](OS(=O)(=O)O)[C@@H]2OS(=O)(=O)O)[C@H]2C=C[C@@H](OS(=O)(=O)O)[C@@H](OS(=O)(=O)O)[C@@H]2OS(=O)(=O)O)C=C[C@H]1OS(=O)(=O)O [Linked sulfated tetracyclitol, 2]
Kd [1]: 0.0207 µM
Kd [2]: 1.1 µM

O=S(=O)(O)O[C@H]1[C@H](OS(=O)(=O)O)[C@@H](N(CCCCCCN([C@H]2C=C[C@@H](OS(=O)(=O)O)[C@@H](OS(=O)(=O)O)[C@@H]2OS(=O)(=O)O)[C@H]2C=C[C@@H](OS(=O)(=O)O)[C@@H](OS(=O)(=O)O)[C@@H]2OS(=O)(=O)O)[C@H]2C=C[C@@H](OS(=O)(=O)O)[C@@H](OS(=O)(=O)O)[C@@H]2OS(=O)(=O)O)C=C[C@H]1OS(=O)(=O)O [Linked sulfated tetracyclitol, 6]
Kd [1]: 0.039 µM
Kd [2]: 0.135 µM
